The target in this assay is SMARCA2 (Homo sapiens, UniProt P51531). The assay can be described thus: MSD SMARCA2 degradation in NCI-H1299 cell line (24 h). Also on record: HC: NCI-H1299 cells treated with DMSO; host or cells: NCI-H1299. The note with it: for Dmax: NCI-H1299, NCI-H1299 cells; for DC50: NCI-H1299 cells, read-out: SMARCA2 MSD H1299 degradation 24 h: External Abs-DC50. Format: cell-based. The method in brief:
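NCI-H1299 cells treated 24 h with a 3-fold, 9-point compound dilution series, then lysed in RIPA with protease inhibitor. SMARCA2 in lysate-coated MSD plates detected with rabbit anti-SMARCA2 (0.3 ug/ml) and SULFO-TAG secondary. Relative SMARCA2 level normalized between DMSO-treated H1299 cells and SMARCA2-negative A2780 cells; Dmax % binned A–D.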

Molecules are shown by their SMILES. Bounds are passed on as bounds.

Our source for the Dmax and DC50 values is patent US12624044B2, “SMARCA degraders and uses thereof” (Kymera Therapeutics, Inc., priority 2019, dated 2026).

Sequence of SMARCA2 (P51531 whole entry): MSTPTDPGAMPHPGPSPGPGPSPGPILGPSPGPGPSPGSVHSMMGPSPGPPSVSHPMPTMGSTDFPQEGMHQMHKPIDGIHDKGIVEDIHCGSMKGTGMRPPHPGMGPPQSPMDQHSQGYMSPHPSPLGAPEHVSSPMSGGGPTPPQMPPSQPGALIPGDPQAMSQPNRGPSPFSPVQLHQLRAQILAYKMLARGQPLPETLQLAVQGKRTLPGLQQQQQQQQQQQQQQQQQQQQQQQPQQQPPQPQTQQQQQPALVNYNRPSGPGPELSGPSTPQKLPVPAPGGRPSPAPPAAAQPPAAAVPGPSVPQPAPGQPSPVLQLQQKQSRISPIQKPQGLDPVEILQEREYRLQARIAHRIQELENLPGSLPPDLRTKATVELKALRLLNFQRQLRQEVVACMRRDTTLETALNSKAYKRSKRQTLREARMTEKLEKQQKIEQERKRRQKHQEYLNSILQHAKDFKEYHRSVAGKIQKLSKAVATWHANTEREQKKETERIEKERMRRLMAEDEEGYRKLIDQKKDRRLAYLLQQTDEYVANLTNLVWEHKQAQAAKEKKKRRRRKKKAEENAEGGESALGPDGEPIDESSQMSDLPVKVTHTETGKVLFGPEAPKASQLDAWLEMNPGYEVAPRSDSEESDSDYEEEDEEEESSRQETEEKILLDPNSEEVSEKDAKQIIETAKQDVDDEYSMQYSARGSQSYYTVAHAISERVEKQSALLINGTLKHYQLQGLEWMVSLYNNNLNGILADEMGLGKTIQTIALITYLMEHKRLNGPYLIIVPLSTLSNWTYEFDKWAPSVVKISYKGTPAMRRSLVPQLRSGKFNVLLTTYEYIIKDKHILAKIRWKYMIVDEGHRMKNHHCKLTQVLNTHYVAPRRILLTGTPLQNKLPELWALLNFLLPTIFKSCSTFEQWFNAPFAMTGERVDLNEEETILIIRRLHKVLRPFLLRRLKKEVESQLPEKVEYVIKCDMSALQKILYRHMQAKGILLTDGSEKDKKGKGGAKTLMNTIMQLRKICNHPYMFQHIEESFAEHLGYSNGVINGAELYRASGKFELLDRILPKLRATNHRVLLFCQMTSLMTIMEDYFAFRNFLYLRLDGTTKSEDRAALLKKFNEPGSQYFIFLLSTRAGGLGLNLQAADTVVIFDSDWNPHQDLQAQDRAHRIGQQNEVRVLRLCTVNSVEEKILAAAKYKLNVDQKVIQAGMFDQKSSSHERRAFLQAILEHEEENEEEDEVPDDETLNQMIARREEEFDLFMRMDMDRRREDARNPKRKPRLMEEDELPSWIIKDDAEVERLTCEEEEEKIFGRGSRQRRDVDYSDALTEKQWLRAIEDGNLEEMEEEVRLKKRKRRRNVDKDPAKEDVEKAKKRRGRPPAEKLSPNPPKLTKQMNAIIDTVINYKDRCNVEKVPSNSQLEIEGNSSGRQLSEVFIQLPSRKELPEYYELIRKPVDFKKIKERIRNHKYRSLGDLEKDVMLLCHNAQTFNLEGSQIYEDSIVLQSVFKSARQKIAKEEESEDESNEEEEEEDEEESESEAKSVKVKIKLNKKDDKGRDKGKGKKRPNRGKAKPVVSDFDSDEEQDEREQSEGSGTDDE

For `Cn1c(=O)n(C2CCC(=O)NC2=O)c2ccc(CCCOCCOCCN3CCN(Cc4ccc(-c5cc(-c6ccccc6O)nnc5N)cc4)CC3)cc21` (centres unmarked) [I-135], the greatest degradation seen (Dmax) was in the range of 50 to 70% and the DC50 fell in the range of 0.1 to 0.5 µM.
Turning to `Cn1c(=O)n(C2CCC(=O)NC2=O)c2ccc(CCCOCCCOCCN3CCN(Cc4ccc(-c5cc(-c6ccccc6O)nnc5N)cc4)CC3)cc21` (centres unmarked) [I-136], the Dmax lay within 50 to 70% and the DC50 lay within 0.1 to 0.5 µM.
With `Cn1c(=O)n(C2CCC(=O)NC2=O)c2ccc(C#CCOCCOCCN3CCN(Cc4ccc(-c5cc(-c6ccccc6O)nnc5N)cc4)CC3)cc21` (centres unmarked) [I-137], the greatest degradation seen (Dmax) was under 50% and the DC50 is over 1 µM.
As to `Cn1c(=O)n(C2CCC(=O)NC2=O)c2ccc(CCCOCCCCN3CCN(Cc4ccc(-c5cc(-c6ccccc6O)nnc5N)cc4)CC3)cc21` (centres unmarked) [I-138], the maximal degradation (Dmax) fell in the range of 50 to 70% and the DC50 is under 0.1 µM.
Take `Cn1c(=O)n(C2CCC(=O)NC2=O)c2ccc(CCCN3CCN(Cc4ccc(-c5cc(-c6ccccc6O)nnc5N)cc4)CC3)cc21` (centres unmarked) [I-139]: the Dmax lay within 50 to 70% and the DC50 is under 0.1 µM.
Turning to `Cn1c(=O)n(C2CCC(=O)NC2=O)c2cccc(CCCOCCCN3CCN(Cc4ccc(-c5cc(-c6ccccc6O)nnc5N)cc4)CC3)c21` (centres unmarked) [I-140], the maximal degradation (Dmax) was 70 to 90% and the DC50 is under 0.1 µM.
On the same counts, the results for `Cn1c(=O)n(C2CCC(=O)NC2=O)c2ccc(COCCCN3CCN(Cc4ccc(-c5cc(-c6ccccc6O)nnc5N)cc4)CC3)cc21` (centres unmarked) [I-141] are under 50% and 0.1 to 0.5 µM.
Take `Cn1c(=O)n(C2CCC(=O)NC2=O)c2ccc(CCCCCCCCOc3cccc(CN4CCN(c5cc(-c6ccccc6O)nnc5N)CC4)c3)cc21` (centres unmarked) [I-142]: the Dmax was under 50% and the DC50 was over 1 µM.
Regarding `Cn1c(=O)n(C2CCC(=O)NC2=O)c2ccc(CCCCCCCCCOc3cccc(CN4CCN(c5cc(-c6ccccc6O)nnc5N)CC4)c3)cc21` (centres unmarked) [I-143], the Dmax was under 50% and the DC50 was over 1 µM.
For the compound `Cn1c(=O)n(C2CCC(=O)NC2=O)c2ccc(CCCCCCCCCCOc3cccc(CN4CCN(c5cc(-c6ccccc6O)nnc5N)CC4)c3)cc21` (centres unmarked) [I-144], the Dmax was in the range of 50 to 70% and the 50% degradation concentration (DC50) was over 1 µM.
Regarding `Cn1c(=O)n(C2CCC(=O)NC2=O)c2ccc(CCCCCCCCCCCOc3cccc(CN4CCN(c5cc(-c6ccccc6O)nnc5N)CC4)c3)cc21` (centres unmarked) [I-145], the maximal degradation (Dmax) is under 50% and the DC50 is over 1 µM.
As to `Cn1c(=O)n(C2CCC(=O)NC2=O)c2ccc(CCCCCCCN3CCC(Cn4cc(-c5cc(-c6ccccc6O)nnc5N)cn4)CC3)cc21` (centres unmarked) [I-146], the maximal degradation (Dmax) lay in the range of 70 to 90% and the DC50 was under 0.1 µM.
Regarding `Cn1c(=O)n(C2CCC(=O)NC2=O)c2ccc(CCCCCCCCN3CCC(Cn4cc(-c5cc(-c6ccccc6O)nnc5N)cn4)CC3)cc21` (centres unmarked) [I-147], the maximal degradation (Dmax) was 70 to 90% and the DC50 was in the range of 0.1 to 0.5 µM.
As for `Cn1c(=O)n(C2CCC(=O)NC2=O)c2ccc(CCCCCCCCCN3CCC(Cn4cc(-c5cc(-c6ccccc6O)nnc5N)cn4)CC3)cc21` (centres unmarked) [I-148], the maximal degradation (Dmax) is over 90% and the DC50 is under 0.1 µM.
As to `Cn1c(=O)n(C2CCC(=O)NC2=O)c2cccc(CCCCCCCN3CCC(Cn4cc(-c5cc(-c6ccccc6O)nnc5N)cn4)CC3)c21` (centres unmarked) [I-149, 3-[4-[7-[4-[[4-[3-amino-6-(2-hydroxyphenyl)pyridazin-4-yl]pyrazol-1-yl]methyl]-1-piperidyl]heptyl]-3-methyl-2-oxo-benzimidazol-1-yl]piperidine-2,6-dione], the maximal degradation (Dmax) was over 90% and the DC50 was under 0.1 µM.
In the case of `Cn1c(=O)n(C2CCC(=O)NC2=O)c2cccc(CCCCCCCCN3CCC(Cn4cc(-c5cc(-c6ccccc6O)nnc5N)cn4)CC3)c21` (centres unmarked) [I-150], the greatest degradation seen (Dmax) was over 90% and the DC50 was under 0.1 µM.
As for `Cn1c(=O)n(C2CCC(=O)NC2=O)c2cccc(CCCCCCCCCN3CCC(Cn4cc(-c5cc(-c6ccccc6O)nnc5N)cn4)CC3)c21` (centres unmarked) [I-151], the Dmax is over 90% and the DC50 lay in the range of 0.1 to 0.5 µM.
Consider `Cn1c(=O)n(C2CCC(=O)NC2=O)c2ccc(CCCCCCCCc3cccc(CN4CCN(c5cc(-c6ccccc6O)nnc5N)CC4)c3)cc21` (centres unmarked) [I-152, 3-(5-(8-(3-((4-(3-amino-6-(2-hydroxyphenyl)pyridazin-4-yl)piperazin-1-yl)methyl)phenyl)octyl)-3-methyl-2-oxo-2,3-dihydro-1H-benzo[d]imidazol-1-yl) piperidine-2,6-dione], for which the greatest degradation seen (Dmax) is under 50% and the 50% degradation concentration (DC50) is over 1 µM.
Consider `Cn1c(=O)n(C2CCC(=O)NC2=O)c2ccc(CCCOCCCN3CCN(Cc4ccc(-c5cc(-c6ccccc6O)nnc5N)cc4)CC3)cc21` (centres unmarked) [I-153], for which the maximal degradation (Dmax) was in the range of 50 to 70% and the 50% degradation concentration (DC50) is under 0.1 µM.
In the case of `Cn1c(=O)n(C2CCC(=O)NC2=O)c2ccc(CCCCN3CCN(Cc4ccc(-c5cc(-c6ccccc6O)nnc5N)cc4)CC3)cc21` (centres unmarked) [I-154], the Dmax is under 50% and the DC50 was over 1 µM.
As for `Cn1c(=O)n(C2CCC(=O)NC2=O)c2cccc(CCCOCCCCN3CCN(Cc4ccc(-c5cc(-c6ccccc6O)nnc5N)cc4)CC3)c21` (centres unmarked) [I-155], the Dmax was 50 to 70% and the DC50 was 0.1 to 0.5 µM.
Turning to `Cn1c(=O)n(C2CCC(=O)NC2=O)c2ccc(CN3CC(OCCCN4CCN(Cc5ccc(-c6cc(-c7ccccc7O)nnc6N)cc5)CC4)C3)cc21` (centres unmarked) [I-156], the Dmax was 50 to 70% and the DC50 was over 1 µM.
`Cn1c(=O)n(C2CCC(=O)NC2=O)c2ccc(CN3CC[C@@H](OCCCN4CCN(Cc5ccc(-c6cc(-c7ccccc7O)nnc6N)cc5)CC4)C3)cc21` (some centres unmarked) [I-157]: the Dmax was 70 to 90% and the DC50 was 0.1 to 0.5 µM.
Turning to `Cn1c(=O)n(C2CCC(=O)NC2=O)c2ccc(CN3CCC(OCCCN4CCN(Cc5ccc(-c6cc(-c7ccccc7O)nnc6N)cc5)CC4)CC3)cc21` (centres unmarked) [I-158], the greatest degradation seen (Dmax) is 70 to 90% and the half-maximal degradation concentration (DC50) was 0.1 to 0.5 µM.
On the same counts, the results for `CN(CCCc1ccc2c(c1)n(C)c(=O)n2C1CCC(=O)NC1=O)Cc1ccc(N2CCN(c3cc(-c4ccccc4O)nnc3N)CC2)cc1` (centres unmarked) [I-159, 3-(5-(3-((4-(4-(3-amino-6-(2-hydroxyphenyl)pyridazin-4-yl)piperazin-1-yl)benzyl)(methyl)amino)propyl)-3-methyl-2-oxo-2,3-dihydro-1H-benzo[d]imidazol-1-yl)piperidine-2,6-dione] are under 50% and over 1 µM.
Turning to `CN1C(=O)CCC(n2c(=O)n(C)c3cc(CCCOCCCCN4CCN(Cc5ccc(-c6cc(-c7ccccc7O)nnc6N)cc5)CC4)ccc32)C1=O` (centres unmarked) [I-160], the Dmax was under 50% and the half-maximal degradation concentration (DC50) is over 1 µM.
As to `CN(CCCc1cnc(N2C3CCC2CN(c2cc(-c4ccccc4O)nnc2N)C3)nc1)CCCc1ccc2c(c1)n(C)c(=O)n2C1CCC(=O)NC1=O` (centres unmarked) [I-161], the Dmax is over 90% and the half-maximal degradation concentration (DC50) is under 0.1 µM.
`Cn1c(=O)n(C2CCC(=O)NC2=O)c2ccc(CN3CCN(Cc4cnc(N5C6CCC5CN(c5cc(-c7ccccc7O)nnc5N)C6)nc4)CC3)cc21` (centres unmarked) [I-163]: the greatest degradation seen (Dmax) is under 50% and the DC50 was over 1 µM.
Regarding `CN(Cc1ccc2c(c1)n(C)c(=O)n2C1CCC(=O)NC1=O)C1CCN(Cc2cnc(N3C4CCC3CN(c3cc(-c5ccccc5O)nnc3N)C4)nc2)CC1` (centres unmarked) [I-164, 3-(5-(((1-((2-(3-(3-amino-6-(2-hydroxyphenyl)pyridazin-4-yl)-3,8-diazabicyclo[3.2.1]octan-8-yl)pyrimidin-5-yl)methyl)piperidin-4-yl)(methyl)amino)methyl)-3-methyl-2-oxo-2,3-dihydro-1H-benzo[d]imidazol-1-yl)piperidine-2,6-dione hydrogen chloride], the maximal degradation (Dmax) is over 90% and the DC50 is under 0.1 µM.
Take `Cn1c(=O)n(C2CCC(=O)NC2=O)c2ccc(CCN3CCN(Cc4cnc(N5C6CCC5CN(c5cc(-c7ccccc7O)nnc5N)C6)nc4)CC3)cc21` (centres unmarked) [I-165]: the Dmax is over 90% and the DC50 was under 0.1 µM.
For the compound `Cn1c(=O)n(C2CCC(=O)NC2=O)c2ccc(CN3CC4(CCN(Cc5cnc(N6C7CCC6CN(c6cc(-c8ccccc8O)nnc6N)C7)nc5)CC4)C3)cc21` (centres unmarked) [I-166], the Dmax was over 90% and the half-maximal degradation concentration (DC50) is under 0.1 µM.
Turning to `Cn1c(=O)n(C2CCC(=O)NC2=O)c2ccc(CCCN3CCC(c4cnc(N5C6CCC5CN(c5cc(-c7ccccc7O)nnc5N)C6)nc4)CC3)cc21` (centres unmarked) [I-167, 3-[5-[3-[4-[2-[3-[3-amino-6-(2-hydroxyphenyl)pyridazin-4-yl]-3,8-diazabicyclo[3.2.1]octan-8-yl]pyrimidin-5-yl]-1-piperidyl]propyl]-3-methyl-2-oxo-benzimidazol-1-yl]piperidine-2,6-dione], the greatest degradation seen (Dmax) is over 90% and the DC50 was under 0.1 µM.
On the same counts, the results for `Cn1c(=O)n(C2CCC(=O)NC2=O)c2cccc(CN3CCCC(n4cc(-c5cc(-c6ccccc6O)nnc5N)cn4)C3)c21` (centres unmarked) [I-168] are 50 to 70% and 0.1 to 0.5 µM.
Consider `Cn1c(=O)n(C2CCC(=O)NC2=O)c2cccc(CCCN3CCCC(n4cc(-c5cc(-c6ccccc6O)nnc5N)cn4)C3)c21` (centres unmarked) [I-169, 3-(4-(3-(3-(4-(3-amino-6-(2-hydroxyphenyl)pyridazin-4-yl)-1H-pyrazol-1-yl)piperidin-1-yl)propyl)-3-methyl-2-oxo-2,3-dihydro-1H-benzo[d]imidazol-1-yl)piperidine-2,6-dione], for which the Dmax was over 90% and the DC50 was under 0.1 µM.
On the same counts, the results for `Cn1c(=O)n(C2CCC(=O)NC2=O)c2cccc(CCCCCN3CCCC(n4cc(-c5cc(-c6ccccc6O)nnc5N)cn4)C3)c21` (centres unmarked) [I-170] are 70 to 90% and under 0.1 µM.
Take `Cn1c(=O)n(C2CCC(=O)NC2=O)c2cccc(CCCCCCCN3CCCC(n4cc(-c5cc(-c6ccccc6O)nnc5N)cn4)C3)c21` (centres unmarked) [I-171]: the Dmax lay within 50 to 70% and the DC50 is over 1 µM.
On to `Cn1c(=O)n(C2CCC(=O)NC2=O)c2cccc(CN3CCC(n4cc(-c5cc(-c6ccccc6O)nnc5N)cn4)CC3)c21` (centres unmarked) [I-173], for which the maximal degradation (Dmax) is under 50% and the 50% degradation concentration (DC50) is over 1 µM.
